Consider two compounds from US5770595A, “Oxime substituted therapeutic compounds” (Cell Therapeutics, Inc., priority 1994, dated 1998).

SMILES strings stand for the structures.

One data set concerns murine thymocyte. The data set can be described thus: thymocyte proliferation stimulated by ConA and IL-2. Conditions: IL-2 20 ng/ml; drug two hours prior; FIG. 4. Format: cell-based, murine (female Balb/C mice). As to the method: A thymocyte costimulator assay is conducted to evaluate the inventive compounds to inhibit activation and proliferation of thymocytes caused by stimulation with Con A and interleukin-1 (IL-1), or […]. Thymuses are obtained from mice (e.g., female Balb/C mice) and the thymuses are removed and dissociated into culture media (e.g., RPMI 1640 without serum supplementation). The dissociated thymus tissue and cell suspension is transferred to centrifuge tubes and allowed to settle, washed with HBSS and resuspended in serum-supplemented culture media (e.g., RPMI 1640 with 10% fetal calf serum). Any contaminating red cells are lysed, and viable cells are resuspended and counted. Thymocytes are plated (e.g., 96-well plates at a density of 2×10^5 cells/well) and a stimulating agent, such as Con A, IL-1 (e.g., IL-1α) or IL-2 is added to the well. The cells are incubated for 4 days at 37° C. On the fourth day, the cells are pulsed with tritiated thymidine and cell proliferation determined. […]
1522 on inhibition of thymocyte proliferation stimulated by ConA and interleukin-2 (IL-2) (20 ng/ml). Compound no. […]
Thymuses, obtained from normal, female Balb/C mice, were dissociated and plated into 96-well plates at a density of 2×10^5 cells/well. […] The amount of tritiated thymidine dye incorporated by the harvested cells was determined in a liquid scintillation counter. […]

Data set [1] relates to PBMC (peripheral blood mononuclear cells). The data set can be described thus: two-way mixed lymphocyte reaction. Conditions: FIG. 1; 6 days culture. It counts as cell-based, human. From the text:
Various in vitro assays can be used to measure effects of the inventive compounds to module immune activity and have antitumor activity using a variety of cellular types. For example, a mixed lymphocyte reaction (MLR) provides a valuable screening tool to determine biological activity of each inventive compound. In the MLR, PBMCs (peripheral blood mononuclear cells) are obtained by drawing whole blood from healthy volunteers in a heparinized container and diluted with an equal volume of hanks balanced salt solution (HBSS). This mixture is layered on a sucrose density gradient, such as a Ficoll-Hypaque® gradient (specific gravity 1.08), and centrifuged at 1000×g for 25 minutes at room temperature or cooler. PBMC are obtained from a band at a plasma-Ficoll interface, separated and washed at least twice in a saline solution, such as HBSS. Contaminating red cells are lysed, such as by ACK lysis for 10 min at 37° C., and the PBMCs are washed twice in HBSS. The pellet of purified PBMCs is resuspended in complete medium, such as RPMI 1640 plus 20% human inactivated serum. Proliferative response of PBMC to allogeneic stimulation is determined in a two-way MLR performed in a 96-well microtiter plate. Briefly, approximately 10^5 test purified PBMC cells in 200 μl complete medium are co-cultured with approximately 10^5 autologous (control culture) or allogeneic (stimulated culture) PBMC cells, wherein the allogeneic cells are from HLA disparate individuals. Varying doses of compounds (drug) are added at the time of addition of cells to the microtiter plate. The cultures are incubated for 6 days at 37° C. in a 5% CO2 atmosphere. At the conclusion of the incubation tritiated thymidine is added (for example, 1 μCi/well of 40 to 60 Ci/mmole) and proliferation determined by liquid scintillation. counting.
Example 10 illustrates a mixed lymphocyte reaction of inventive compounds nos. 1521 and 1522 (see above for chemical name and structure). […] Both compounds nos. […]

For data set [2], the system named is murine peritoneal macrophages. The data set can be described thus: IL-1α release from LPS-stimulated murine peritoneal macrophages. The following applies: 0.25 mM, LPS 10 μg/ml. Format: cell-based. The protocol: This example illustrates the ability of inventive compound no. 1521 to inhibit IL-1α release from murine peritoneal macrophages when stimulated with LPS. This assay is a model for septic shock. Macrophages (10^5) were treated with LPS at 10 μg/ml in RPMI media containing 10% fetal calf serum. Supernatants were assayed for IL-1α by an ELISA technique at various times following LPS stimulation. The cells were treated one hour prior to LPS stimulation with 0.25 mM 1521.

Data set [3] concerns murine peritoneal macrophages. The data set can be described thus: TNF-α release from LPS-stimulated murine peritoneal macrophages. Format: cell-based. Conditions: 0.25 mM, LPS 10 μg/ml. As to the method:
This example illustrates the ability of inventive compound no. 1521 to inhibit TNF-α release from murine peritoneal macrophages when stimulated with LPS. This assay is a model for septic shock. Macrophages (10^5) were treated with LPS at 10 μg/ml in RPMI media containing 10% fetal calf serum. Supernatants were assayed for TNF by an ELISA technique at various times following LPS stimulation. The cells were treated one hour prior to LPS stimulation with 0.25 mM of inventive compound no. 1521.

For the next data set, the system named is L929 cells. The data set can be described thus: TNF-α-mediated cytotoxicity in L929 cells. It counts as cell-based, murine. Conditions: human TNF-α 300 pg/ml; FIG. 9. As to the method:
An inventive compound can be assayed for activity protecting TNF-mediated cytotoxicity. In this assay, L929 murine fibroblast cells (10^4 cells per well) are incubated with either compounds at varying doses and media control for two hrs. […] The cells plus (or minus) drug plus TNF were incubated for 40 hrs at 37° C. The media is removed and replaced with fresh media containing 2% serum and 10 μg/ml of BCECF fluorescent dye and incubated for 30 min. The fluorescent dye-containing media is removed and replaced with PBS (phosphate buffered saline) and each well was assayed for fluorescence.
This assay is a model for septic shock. L929 cells (10^5) were treated with human TNF-α at 300 pg/ml in RPMI media containing 10% fetal calf serum with or without compound no. One day later, the cells were stained for viability using the fluorescent dye BCECF and fluorescence of the samples was analyzed using a Milipore plate reader.

Regarding `CON=C(C)CCCCn1c(=O)c2c(ncn2C)n(C)c1=O` [Compound no. 1522], the “inhibition of thymocyte proliferation, ConA + IL-2” value in the data set on murine thymocyte is given as “inhibited thymocyte proliferation at the higher doses tested”. The “proliferative response of PBMC to allogeneic stimulation (MLR)” value in data set [1] is “showed activity in this immune modulating activity assay procedure”.

Take `CC(CCCCn1c(=O)c2c(ncn2C)n(C)c1=O)=NO` [Compound no. 1521]: the “inhibition of IL-1α release” value in data set [2] is recorded as “inhibited IL-1α release”. Further, the “inhibition of TNF-α release” value in data set [3] is on record as “inhibited TNF release”. Also, the “protection of L929 cells from TNF-induced cytotoxicity” value in the data set on L929 cells was “inhibited TNF-induced cytotoxicity in a dose dependent manner”. The “proliferative response of PBMC to allogeneic stimulation (MLR)” value in data set [1] is on record as “showed activity in this immune modulating activity assay procedure”.
